Source: paper PMC7180456, “Multitarget Anticancer Agents Based on Histone Deacetylase and Protein Kinase CK2 Inhibitors” (Molecules, 2020)
Where two headings read alike, the source gives them in different places. Each block holds one compound with its values, some of them ahead of it.

Columns and labels:
CK2 = conditions: Figure 1; read-out: IC50 of representative CK2 inhibitors; cited from earlier work
[1] = tested on: leukemia cells of HL-60 line; assay: Cytotoxicity, trypan blue exclusion assay, 24 h; assay type: cell-based; conditions: Homo sapiens
Excerpt: (§1) Taking into consideration the high abundance of CK2 kinase in leukemia and lymphomas, the ability of selected CK2-HDAC dual inhibitors to circumvent MDR was investigated in human leukemia cells of HL-60 line and its doxorubicin-resistant (HL-60/adr, MRP-1 overexpression) and vincristine-resistant (HL-60/vinc, P-gp overexpression) sublines.
(§2) Statistical significance was set at P ≤ 0.05.

[2] = tested on: HL-60/adr (doxorubicin-resistant, MRP-1 overexpression); assay: Cytotoxicity, trypan blue exclusion assay, 24 h; assay type: cell-based; conditions: Homo sapiens, HL60/ADR
Excerpt: as §1, §2

[3] = tested on: HL-60/vinc (vincristine-resistant, P-gp overexpression); assay: Cytotoxicity, trypan blue exclusion assay, 24 h; assay type: cell-based; conditions: for CC50: Homo sapiens, HL60/vinc
Excerpt: as §1, §2

[4] = tested on: HCT-116 colon carcinoma cells; assay: Cytotoxicity, trypan blue exclusion assay, 24 h; conditions: Homo sapiens
Protocol: (§4) Walter Berger, Institute of Cancer Research, Vienna Medical University. Human embryonal kidney cells of HEK293 line were obtained from cell culture collection of R.E. Kavetsky Institute of Experimental Pathology, Oncology and Radiobiology, National Academy of Sciences of Ukraine (Kyiv, Ukraine).
(§5) Cells were seeded (5 × 10^5/mL for leukemia cells and 1 × 10^5/mL for carcinoma cells) into 24-well tissue culture plates (Greiner Bio-one, Frickenhausen, Germany) and were permitted to adhere and grow for 24 h before the experiment. Short-term (24 h) cytotoxic effect of antitumor drugs was studied under the Evolution 300 Trino microscope (Delta Optical, Nowe Osiny, Poland) after cell staining with trypan blue dye (0.1%).
(§6) Final concentration of DMSO in cell culture was 0.5% or less.
(§7) All experiments were performed in triplicate and repeated three times. Statistical analysis of data was conducted in GraphPad Prism 7.0 Software (GraphPad Software, Inc.) using Student’s t test. Statistical significance was set at P ≤ 0.05. Evaluation of LC50 values of each compound was done by built-in functions of GraphPad Prism (non-linear regression, curve fit, [Inhibitor] vs. normalized response - Variable slope).

HDAC6 = target: T1, HDAC6 (Homo sapiens, UniProt Q9UBN7); assay: HDAC6 inhibition, fluorometric method (Enzo Fluorometric Drug Discovery Assay Kit); assay type: biochemical; conditions: read-out: Inhibitory activity IC50 on HDAC6
T1 construct: purchased Enzo Life Sciences, Inc
T1 sequence (Q9UBN7 1-1215): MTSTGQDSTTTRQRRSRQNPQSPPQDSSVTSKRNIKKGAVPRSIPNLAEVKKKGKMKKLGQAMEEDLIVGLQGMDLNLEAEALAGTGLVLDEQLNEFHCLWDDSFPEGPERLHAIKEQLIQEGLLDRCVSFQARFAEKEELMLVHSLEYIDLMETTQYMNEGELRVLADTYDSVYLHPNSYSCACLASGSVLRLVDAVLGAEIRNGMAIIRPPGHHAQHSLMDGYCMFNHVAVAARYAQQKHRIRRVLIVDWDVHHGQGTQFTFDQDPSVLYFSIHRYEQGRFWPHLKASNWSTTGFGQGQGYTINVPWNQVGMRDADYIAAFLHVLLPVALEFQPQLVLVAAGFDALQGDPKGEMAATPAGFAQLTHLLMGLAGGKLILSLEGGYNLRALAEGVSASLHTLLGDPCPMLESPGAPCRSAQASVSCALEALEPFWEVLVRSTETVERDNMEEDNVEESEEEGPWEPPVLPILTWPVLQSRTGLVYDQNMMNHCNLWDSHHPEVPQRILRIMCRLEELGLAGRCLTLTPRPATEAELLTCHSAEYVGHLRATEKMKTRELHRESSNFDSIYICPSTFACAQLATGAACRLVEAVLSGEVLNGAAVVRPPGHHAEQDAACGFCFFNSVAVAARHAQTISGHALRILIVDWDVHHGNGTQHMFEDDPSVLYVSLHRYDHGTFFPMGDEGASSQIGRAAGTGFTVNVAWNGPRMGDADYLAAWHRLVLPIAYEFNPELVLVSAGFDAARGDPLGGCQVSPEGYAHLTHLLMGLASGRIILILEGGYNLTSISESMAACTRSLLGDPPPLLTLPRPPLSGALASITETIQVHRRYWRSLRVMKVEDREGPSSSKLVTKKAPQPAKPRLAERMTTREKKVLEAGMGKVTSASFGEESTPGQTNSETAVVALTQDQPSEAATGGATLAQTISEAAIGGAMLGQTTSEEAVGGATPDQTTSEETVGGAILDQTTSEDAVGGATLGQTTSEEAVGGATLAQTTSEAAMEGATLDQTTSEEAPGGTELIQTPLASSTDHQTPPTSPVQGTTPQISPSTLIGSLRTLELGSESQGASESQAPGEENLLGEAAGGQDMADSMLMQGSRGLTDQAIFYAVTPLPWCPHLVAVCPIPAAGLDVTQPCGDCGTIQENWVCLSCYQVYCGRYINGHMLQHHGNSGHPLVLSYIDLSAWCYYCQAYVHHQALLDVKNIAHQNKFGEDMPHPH
Protocol: For this reason, we analyzed the activity of 15 and 19, together with other compounds from the alkyl and triazole series in HDAC6, tested using a fluorometric method (Table 1).
(§3) 15 µL of HDAC1 (0.4 µg/well) or HDAC6 (0.5 µg/well) were incubated at 37 °C for 30 minutes with 10 µL of inhibitor diluted in 5% DMSO and 25 µL of fluorogenic substrate (0.05 µL/well of 5 mM solution). Reactions were stopped with the developer and trichostatin A, diluted in buffer without BSA, and the plate was incubated at 30 °C for 45 min, followed by measuring the fluorescence (Ex. 360 nm, Em. 450 nm, Fluoroskan, Thermo Scientific).

[5] = Cytotoxicity, trypan blue exclusion assay, 24 h (pseudonormal cells); conditions: human, HEK293 embryonic kidney cells (pseudonormal)
Protocol: as §4, §5, §6, §7

[6] = tested on: breast adenocarcinoma cells of MCF-7 line; assay: Cytotoxicity, trypan blue exclusion assay, 24 h; conditions: Homo sapiens
Protocol: as §4, §5, §6, §7

Jurkat T-leukemia cells = assay: Cytotoxicity, trypan blue exclusion assay, 24 h; conditions: Homo sapiens
Protocol: as §4, §5, §6, §7

[7] = tested on: human tumor and pseudonormal cell lines; assay: Cytotoxicity, trypan blue assay, range over the cell lines tested; assay type: cell-based; conditions: 24 h, read-out: LC50 range depending on cell line
Excerpt: as §2

HL-60/wt cells = assay: Depolarization of mitochondria, JC-1 assay, FACS; assay type: cell-based, human; conditions: 24 h
human recombinant HDAC1 = target: T2, human recombinant HDAC1 (Homo sapiens, UniProt Q13547); assay: HDAC1 inhibition, fluorometric method (Enzo Fluorometric Drug Discovery Assay Kit); assay type: biochemical; conditions: read-out: Inhibitory activity IC50 on HDAC1
T2 construct: purchased Enzo Life Sciences, Inc
T2 sequence (Q13547 whole entry): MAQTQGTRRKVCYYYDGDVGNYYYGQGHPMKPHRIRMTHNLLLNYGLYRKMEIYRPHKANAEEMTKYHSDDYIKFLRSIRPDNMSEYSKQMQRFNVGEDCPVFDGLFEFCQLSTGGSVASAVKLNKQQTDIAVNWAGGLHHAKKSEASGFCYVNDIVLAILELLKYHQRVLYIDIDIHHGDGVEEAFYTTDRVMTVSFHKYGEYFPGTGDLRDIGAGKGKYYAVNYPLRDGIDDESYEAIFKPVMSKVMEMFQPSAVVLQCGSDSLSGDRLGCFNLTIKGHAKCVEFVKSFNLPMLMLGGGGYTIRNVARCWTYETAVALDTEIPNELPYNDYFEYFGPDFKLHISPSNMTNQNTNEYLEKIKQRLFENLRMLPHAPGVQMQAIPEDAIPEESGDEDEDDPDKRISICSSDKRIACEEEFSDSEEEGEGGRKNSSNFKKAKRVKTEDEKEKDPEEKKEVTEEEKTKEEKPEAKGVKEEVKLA
Protocol: The inhibitory activities of the synthesized compounds were determined against CK2 and HDAC1 and the IC50 values are collected in Table 1. The activity towards human recombinant HDAC1 was tested using a fluorometric method. CK2 inhibitory activity was determined by a radiometric method, using a short peptide ([…]) as a substrate.
as §3

human recombinant CK2α = target: T3, human recombinant CK2α (Homo sapiens, UniProt P68400); assay: CK2 inhibition, radiometric method with peptide substrate […]; assay type: biochemical; conditions: for IC50: radiometric method, 20 µM ATP, read-out: Inhibitory activity IC50 on CK2
T3 construct: GST; made in house; host or cells: bacteria
T3 sequence (P68400 whole entry): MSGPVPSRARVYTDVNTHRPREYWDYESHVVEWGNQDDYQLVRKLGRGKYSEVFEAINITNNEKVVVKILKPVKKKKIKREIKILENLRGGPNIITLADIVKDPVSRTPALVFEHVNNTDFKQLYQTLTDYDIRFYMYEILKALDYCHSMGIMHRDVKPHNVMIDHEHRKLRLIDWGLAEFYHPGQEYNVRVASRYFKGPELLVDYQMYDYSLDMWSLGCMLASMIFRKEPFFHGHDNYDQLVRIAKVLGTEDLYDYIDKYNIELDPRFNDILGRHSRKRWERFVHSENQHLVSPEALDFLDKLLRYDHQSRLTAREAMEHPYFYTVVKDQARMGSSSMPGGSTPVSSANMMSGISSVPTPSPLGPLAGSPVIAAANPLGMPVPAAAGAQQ
Protocol: The activity towards human recombinant HDAC1 was tested using a fluorometric method. CK2 inhibitory activity was determined by a radiometric method, using a short peptide ([…]) as a substrate.
Recombinant human protein kinase GST-CK2 was produced in bacteria and purified as described elsewhere. […] The reaction buffer contained 20 µM [γ-32P] ATP (specific radioactivity 300–1000 cpm/pmol), 15 mM Mg^2+, 20 mM Tris–HCl pH 7.5, and 6 mM 2-mercaptoethanol. 10 µL of the assay mixture was spotted onto a square (1 cm/1 cm) of Whatman P81 paper and allowed to dry. Each square was immersed in cold 0.5% phosphoric acid, and washed three times during 10 min, allowed to dry and transferred into a vessel containing Opti-Phase liquid (scintillation solution) and radioactivity was quantified using a scintillation counter (MicroBeta, Perkin Elmer) by Cerenkov counting. All experiments were performed in triplicate. IC50 values were calculated using GraphPad Prism (version 4.0) software.

[8] = Table 2, trypan blue, 24 h, M ± SD, read-out: LC50 Values of Compounds for Cell Line, HL-60
[9] = supplement Table 4S, M±SD, read-out: LC50 values of compounds for cell line, HL-60
[10] = Table 2, trypan blue, 24 h, M ± SD, read-out: LC50 Values of Compounds for Cell Line, HL-60/adr
[11] = supplement Table 4S, M±SD, read-out: LC50 values of compounds for cell line, HL-60/adr
[12] = Table 2, trypan blue, 24 h, M ± SD, read-out: LC50 Values of Compounds for Cell Line, HL-60/vinc
[13] = supplement Table 4S, M±SD, read-out: LC50 values of compounds for cell line, HL-60/vinc
[14] = HCT-116, 24 h, read-out: LC50 Values of Compounds for Cell Line, HCT-116
[15] = HCT-116, read-out: LC50 values of compounds for cell line, HCT-116
[16] = LC50 Values of Compounds for Cell Line, HEK293, Table 2, trypan blue, 24 h, M ± SD
[17] = LC50 values of compounds for cell line, HEK293, supplement Table 4S, M±SD
[18] = MCF7, 24 h, read-out: LC50 Values of Compounds for Cell Line, MCF-7
[19] = MCF7, read-out: LC50 values of compounds for cell line, MCF-7
[20] = 24 h, read-out: LC50 Values of Compounds for Cell Line, Jurkat
[21] = read-out: LC50 values of compounds for cell line, Jurkat

SMILES: O=c1c(O)c(-c2ccc(O)c(O)c2)oc2cc(O)ccc12 [Fisetin]
- IC50 (CK2): 350 nM

SMILES: CN(C)c1nc2c(Br)c(Br)c(Br)c(Br)c2n1CCCCCCCC(=O)NO [Compound 11d, N-Hydroxy-8-(4,5,6,7-tetrabromo-2-(dimethylamino)-1H-benzo[d]imidazol-1-yl)octanamide]
- CC50 [1, 8]: 4.69 ± 0.54 µM
- CC50 [1, 9]: 29.7 µM
- CC50 [2, 10]: 8.4 ± 1.21 µM
- CC50 [2, 11]: 15.1 µM
- change of activity towards P-gp overexpressing HL-60/vinc cells versus HL-60/wt ([3]; 24 h): increased twofold
- CC50 [3, 12]: 2320 ± 1060 nM
- CC50 [3, 13]: > 30000 nM
- CC50 [4, 14]: 3.1 ± 0.37 µM
- CC50 [4, 15]: 16.9 µM
- IC50 (HDAC6): 8.98 µM
- CC50 at 24 h [5, 16]: 8.41 ± 1.26 µM
- CC50 at 24 h [5, 17]: > 30 µM
- CC50 [6, 18]: 9.02 ± 0.9 µM
- CC50 [6, 19]: 27.8 µM
- CC50 (Jurkat T-leukemia cells; [20]): 5.3 ± 0.75 µM
- CC50 (Jurkat T-leukemia cells; [21]): 14.2 µM
- CC50 [7]: 3 to 8 µM
- level of depolarized mitochondria (HL-60/wt cells; dose not stated in the sentence (10 µM and 30 µM tested)): 53.23%
- IC50 (human recombinant HDAC1): 13.7 µM

SMILES: CN(C)c1nc2c(Br)c(Br)c(Br)c(Br)c2n1CCCCCCC(=O)NO [Compound 11c, N-Hydroxy-7-(4,5,6,7-tetrabromo-2-(dimethylamino)-1H-benzo[d]imidazol-1-yl)heptanamide]
- CC50 [1, 8]: 6.59 ± 0.96 µM
- CC50 [1, 9]: 4.69 µM
- CC50 [2, 10]: 10.6 ± 1.53 µM
- CC50 [2, 11]: 8.4 µM
- CC50 [3, 12]: 12100 ± 3270 nM
- CC50 [3, 13]: 2490 nM
- CC50 [4, 14]: 1.9 ± 0.24 µM
- CC50 [4, 15]: 3.1 µM
- IC50 (HDAC6): 1.13 µM
- CC50 at 24 h [5, 16]: 13.6 ± 0.8 µM
- CC50 at 24 h [5, 17]: 8.41 µM
- CC50 [6, 18]: 9.97 ± 0.99 µM
- CC50 [6, 19]: 9.02 µM
- fold difference in the CK2 inhibitory activity compared to 11b (human recombinant CK2α; compared to 11b): 4.5 fold
- IC50 (human recombinant CK2α): 16.6 µM
- CC50 (Jurkat T-leukemia cells; [20]): 9.47 ± 1.1 µM
- CC50 (Jurkat T-leukemia cells; [21]): 5.63 µM
- CC50 [7]: 1.9 to 13.6 µM
- depolarization of mitochondria (HL-60/wt cells; 10 µM): 34.73%
- depolarization of mitochondria (HL-60/wt cells; 30 µM): 49.98%
- IC50 (human recombinant HDAC1): 1.77 µM

- IC50 (human recombinant CK2α): 53.8 µM
- IC50 (human recombinant HDAC1): 10.2 µM
SMILES: CN(C)c1nc2c(Br)c(Br)c(Br)c(Br)c2n1CCc1cn(CCCC(=O)NO)nn1 [Compound 7d, N-Hydroxy-4-(4-(2-(4,5,6,7-tetrabromo-2-(dimethylamino)-1H-benzo[d]imidazol-1-yl)ethyl)-1H-1,2,3-triazol-1-yl)butanamide]

- IC50 (human recombinant CK2α): 34.2 µM
- IC50 (human recombinant HDAC1): 62 µM
SMILES: CN(C)c1nc2c(Br)c(Br)c(Br)c(Br)c2n1CCCCC(=O)NO [Compound 11a, N-Hydroxy-5-(4,5,6,7-tetrabromo-2-(dimethylamino)-1H-benzo[d]imidazol-1-yl)pentanamide]
